Several values for one entry are separate records, joined by “and”; a condition that tells them apart may be missing. Equal values may be shown once. Entries after “also recorded” stand apart in the source; their conditions may differ. Read-outs that look alike come from different tables or passages of the source.
Assays:
[1] = test system: hNav1.8; assay: cell-based; format: cell-based, human; conditions: hNav1.8 / hNav1.7
[2] = molecular target: hNav1.8 (Homo sapiens, UniProt Q9Y5Y9); assay: cell-based; format: cell-based
[3] = molecular target: human Nav1.1 (Homo sapiens, UniProt P35498); assay: cell-based; format: cell-based
[4] = test system: TTX-sensitive Nav channels in Sprague Dawley rat DRG neuron
[5] = in vivo; conditions: male, CD-1, mouse, sc, 5 mg/kg
[6] = molecular target: T1, hNav1.5 (Homo sapiens, UniProt Q14524); assay: cell-based; format: cell-based
[7] = molecular target: T2, hNav1.7 (Homo sapiens, UniProt Q15858); assay: cell-based; format: cell-based
[8] = molecular target: hNav1.6 (Homo sapiens, UniProt Q9UQD0); assay: cell-based; format: cell-based
[9] = molecular target: human Nav1.6 (Homo sapiens, UniProt Q9UQD0); assay: cell-based; format: cell-based
[10] = molecular target: T3, hNav1.4 (Homo sapiens, UniProt P35499); assay: cell-based; format: cell-based; conditions: Table 12; ratio of PX tonic IC50 values
[11] = molecular target: T3, hNav1.4; assay: cell-based; format: cell-based
[12] = male CD-1 mice, 5 mg/kg s.c.
[13] = molecular target: T2, hNav1.7; assay: cell-based; format: cell-based; conditions: Table 15; read-out: PX hNav1.7 Tonic IC50
[14] = molecular target: hNav1.3 (Homo sapiens, UniProt Q9NY46); assay: cell-based; format: cell-based
[15] = molecular target: T1, hNav1.5; assay: cell-based; conditions: Table 12; ratio of PX tonic IC50 values
[16] = molecular target: human Nav1.2 (Homo sapiens, UniProt Q99250); assay: cell-based; format: cell-based
[17] = test system: TTX-sensitive Nav channels in mouse DRG neuron; conditions: for 1.x/1.7: mTTX-S / hNav1.7
[18] = molecular target: T1, hNav1.5; assay: cell-based; conditions: IonWorks Quattro; Table 6; read-out: IC50 (μM) Nav1.5
[19] = test system: TTX-resistant Nav channels in mouse DRG neuron
[20] = rat plasma, 37° C., incubation time 0 hr (normalization point)
[21] = cyno plasma, 37° C., incubation 0 hr (normalisation point)
[22] = human plasma, 37° C., incubation 0 hr (normalisation point)
[23] = mouse plasma, 37° C., incubation 0 hr (normalisation point)
[24] = molecular target: T2, hNav1.7; assay: cell-based; conditions: ratio of IonWorks Quattro IC50 values, Nav1.4 over Nav1.7
[25] = test system: male CD-1 mice; conditions: mouse, in vivo
[26] = manual WCPC, ~20% inactivation, read-out: IC50 of hNav1.5 inhibition

T3 sequence (P35499 whole entry): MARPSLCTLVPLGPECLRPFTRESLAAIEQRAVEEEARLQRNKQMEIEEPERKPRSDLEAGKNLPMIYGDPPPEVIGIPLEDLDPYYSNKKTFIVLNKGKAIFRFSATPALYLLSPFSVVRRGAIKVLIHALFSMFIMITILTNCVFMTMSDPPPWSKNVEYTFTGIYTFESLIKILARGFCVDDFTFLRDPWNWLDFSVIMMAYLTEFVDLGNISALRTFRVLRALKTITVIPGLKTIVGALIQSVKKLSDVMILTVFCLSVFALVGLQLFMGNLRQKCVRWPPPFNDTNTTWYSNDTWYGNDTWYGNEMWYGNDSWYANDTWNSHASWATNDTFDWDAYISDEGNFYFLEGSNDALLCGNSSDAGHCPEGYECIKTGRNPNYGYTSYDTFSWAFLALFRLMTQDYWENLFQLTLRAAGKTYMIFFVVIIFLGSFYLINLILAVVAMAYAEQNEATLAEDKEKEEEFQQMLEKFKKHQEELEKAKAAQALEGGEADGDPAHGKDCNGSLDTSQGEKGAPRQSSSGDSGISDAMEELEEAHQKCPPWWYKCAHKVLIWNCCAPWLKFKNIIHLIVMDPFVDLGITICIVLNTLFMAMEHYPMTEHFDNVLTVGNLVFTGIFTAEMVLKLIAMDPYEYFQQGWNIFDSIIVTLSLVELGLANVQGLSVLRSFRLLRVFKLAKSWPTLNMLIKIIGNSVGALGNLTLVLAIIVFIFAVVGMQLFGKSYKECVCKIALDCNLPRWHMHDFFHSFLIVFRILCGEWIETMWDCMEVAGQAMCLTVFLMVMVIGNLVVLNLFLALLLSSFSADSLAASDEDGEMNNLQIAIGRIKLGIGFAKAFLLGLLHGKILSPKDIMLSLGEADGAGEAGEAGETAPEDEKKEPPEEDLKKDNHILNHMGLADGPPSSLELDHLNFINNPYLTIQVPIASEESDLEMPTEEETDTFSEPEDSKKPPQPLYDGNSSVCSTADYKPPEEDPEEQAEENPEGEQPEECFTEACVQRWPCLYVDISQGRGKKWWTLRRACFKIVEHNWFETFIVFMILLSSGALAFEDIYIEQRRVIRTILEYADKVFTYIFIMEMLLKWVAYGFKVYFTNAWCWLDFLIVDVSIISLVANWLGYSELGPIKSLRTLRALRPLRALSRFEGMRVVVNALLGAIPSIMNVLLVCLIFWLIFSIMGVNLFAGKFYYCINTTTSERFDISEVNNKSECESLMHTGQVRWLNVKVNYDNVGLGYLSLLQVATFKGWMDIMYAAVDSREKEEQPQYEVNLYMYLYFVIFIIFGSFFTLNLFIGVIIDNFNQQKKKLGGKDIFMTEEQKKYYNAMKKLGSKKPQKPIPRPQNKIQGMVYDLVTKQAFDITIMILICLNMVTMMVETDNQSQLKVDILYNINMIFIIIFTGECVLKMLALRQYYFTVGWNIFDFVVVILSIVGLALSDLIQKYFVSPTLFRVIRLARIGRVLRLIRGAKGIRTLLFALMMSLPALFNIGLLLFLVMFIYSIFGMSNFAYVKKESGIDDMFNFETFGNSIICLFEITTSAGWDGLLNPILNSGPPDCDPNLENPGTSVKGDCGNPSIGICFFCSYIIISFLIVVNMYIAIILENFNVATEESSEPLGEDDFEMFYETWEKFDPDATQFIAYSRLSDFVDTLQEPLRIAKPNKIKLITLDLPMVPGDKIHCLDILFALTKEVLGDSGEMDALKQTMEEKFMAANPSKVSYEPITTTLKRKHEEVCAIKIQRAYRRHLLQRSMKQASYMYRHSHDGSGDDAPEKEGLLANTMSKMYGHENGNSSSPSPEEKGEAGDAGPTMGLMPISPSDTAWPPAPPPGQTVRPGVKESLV
Chain of human Nav1.2 (Q99250 whole entry): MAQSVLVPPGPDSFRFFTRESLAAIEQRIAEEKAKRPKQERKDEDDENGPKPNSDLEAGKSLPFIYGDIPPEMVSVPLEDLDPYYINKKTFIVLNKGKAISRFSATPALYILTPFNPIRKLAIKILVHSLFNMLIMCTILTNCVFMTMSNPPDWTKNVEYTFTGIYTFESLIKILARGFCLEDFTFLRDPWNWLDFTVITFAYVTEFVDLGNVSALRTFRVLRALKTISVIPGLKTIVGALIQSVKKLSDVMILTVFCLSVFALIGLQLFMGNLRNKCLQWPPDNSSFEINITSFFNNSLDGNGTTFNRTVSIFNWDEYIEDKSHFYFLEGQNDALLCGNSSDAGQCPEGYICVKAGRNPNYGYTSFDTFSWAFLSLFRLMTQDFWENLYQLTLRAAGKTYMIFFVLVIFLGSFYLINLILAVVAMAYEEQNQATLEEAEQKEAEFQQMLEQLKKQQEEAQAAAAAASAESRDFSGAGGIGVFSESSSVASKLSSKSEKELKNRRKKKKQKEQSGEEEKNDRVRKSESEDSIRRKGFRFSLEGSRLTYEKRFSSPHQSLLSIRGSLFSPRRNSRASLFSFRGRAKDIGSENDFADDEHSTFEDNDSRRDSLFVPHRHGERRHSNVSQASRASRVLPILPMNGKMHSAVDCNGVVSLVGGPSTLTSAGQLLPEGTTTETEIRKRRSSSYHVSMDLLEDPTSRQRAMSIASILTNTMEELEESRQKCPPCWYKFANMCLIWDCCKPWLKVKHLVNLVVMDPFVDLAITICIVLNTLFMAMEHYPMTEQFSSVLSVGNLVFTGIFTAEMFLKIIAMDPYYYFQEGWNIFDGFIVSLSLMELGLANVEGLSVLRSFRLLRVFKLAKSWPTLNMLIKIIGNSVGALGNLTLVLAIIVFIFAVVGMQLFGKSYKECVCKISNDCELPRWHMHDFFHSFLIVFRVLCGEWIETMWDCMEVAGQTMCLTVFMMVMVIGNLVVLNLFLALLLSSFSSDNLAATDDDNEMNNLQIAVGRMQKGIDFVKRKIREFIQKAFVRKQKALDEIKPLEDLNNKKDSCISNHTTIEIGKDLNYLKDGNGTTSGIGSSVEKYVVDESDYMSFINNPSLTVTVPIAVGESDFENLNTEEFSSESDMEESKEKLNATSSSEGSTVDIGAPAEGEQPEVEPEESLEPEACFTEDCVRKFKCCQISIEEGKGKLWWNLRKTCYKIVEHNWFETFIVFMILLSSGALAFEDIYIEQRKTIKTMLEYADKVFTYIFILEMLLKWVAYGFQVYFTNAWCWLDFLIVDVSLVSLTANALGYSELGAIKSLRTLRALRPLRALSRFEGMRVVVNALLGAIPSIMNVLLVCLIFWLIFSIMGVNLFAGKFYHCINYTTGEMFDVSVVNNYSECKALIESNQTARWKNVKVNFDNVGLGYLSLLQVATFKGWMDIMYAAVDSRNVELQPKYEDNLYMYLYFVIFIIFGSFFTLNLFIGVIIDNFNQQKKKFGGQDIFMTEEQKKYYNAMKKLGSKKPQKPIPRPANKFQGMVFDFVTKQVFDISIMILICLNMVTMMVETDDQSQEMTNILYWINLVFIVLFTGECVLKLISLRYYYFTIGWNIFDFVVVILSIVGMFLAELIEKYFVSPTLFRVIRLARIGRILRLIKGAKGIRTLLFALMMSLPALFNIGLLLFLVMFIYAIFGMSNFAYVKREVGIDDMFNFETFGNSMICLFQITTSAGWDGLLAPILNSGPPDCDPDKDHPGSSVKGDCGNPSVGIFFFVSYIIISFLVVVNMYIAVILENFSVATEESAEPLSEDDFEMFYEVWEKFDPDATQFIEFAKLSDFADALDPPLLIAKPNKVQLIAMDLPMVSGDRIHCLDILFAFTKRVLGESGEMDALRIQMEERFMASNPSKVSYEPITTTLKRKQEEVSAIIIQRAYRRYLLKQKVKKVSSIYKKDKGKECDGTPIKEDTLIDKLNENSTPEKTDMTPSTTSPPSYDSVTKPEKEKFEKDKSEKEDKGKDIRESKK

In the case of `C#CC[C@H](N)C(=O)N[C@@H](Cc1ccc(O)cc1)C(=O)N[C@H]1CSSC[C@@H]2NC(=O)[C@@H]3CSSC[C@@H](C(=O)N[C@@H](CCCNC(=N)N)C(=O)N[C@@H](CCCCN)C(=O)N[C@@H](CCC(=O)O)C(=O)N[C@H](C(N)=O)[C@@H](C)CC)NC(=O)[C@H](Cc4c[nH]c5ccccc45)NC(=O)[C@H](CC(C)C)NC(=O)[C@H](CCCCN)NC(=O)[C@H](CSSC[C@H](NC(=O)[C@H]([C@@H](C)O)NC(=O)[C@H](Cc4c[nH]c5ccccc45)NC(=O)[C@H](CCCC)NC(=O)[C@H](Cc4c[nH]c5ccccc45)NC(=O)[C@H](CCCCN)NC(=O)[C@H](CCC(N)=O)NC1=O)C(=O)N[C@@H](CC(=O)O)C(=O)N[C@@H](CO)C(=O)N[C@@H](CCCCN)C(=O)N[C@@H](CCCNC(=N)N)C(=O)N[C@@H](C)C(=O)N3)NC(=O)[C@H](CCCNC(=N)N)NC(=O)[C@H](CC(C)C)NC(=O)CNC(=O)[C@H](CCC(=O)O)NC2=O` [compound 328], the 1.x/1.7 ([1]; partially inactivated) is reported as over 1613, the IC50 [2] is reported as over 1 µM and the “block of TTX-resistant hNav1.8 current” value ([2]; 1000 nM) is reported as “approximately 30%”. The IC50 ([2]; WCPC, partially inactivated, hNav1.8, n=2, read-out: Mean IC50) was over 1 µM, the “block of hNav1.1 current” value ([3]; 1000 nM, held at −70 mV) was “approximately 95%” and the IC50 ([3]; manual patch clamp, ~20% inactivation, read-out: IC50 hNav1.1) was 0.0272 µM. The 1.x/1.7 ([3]; partially inactivated, hNav1.1 / hNav1.7) was 44, the IC50 [4] was 0.0307 µM and the “block of TTX-sensitive Nav current” value ([4]; 300 nM, Sprague Dawley rat DRG neuron held at −78 mV) was “approximately 85%”. It also gave a 1.x/1.7 ([4]; partially inactivated, rTTX-S / hNav1.7) of 50, a Cmax [5] of 2.2 µM and a half-life [5] of about 4.5 h. The “block of hNav1.5 current” value ([6]; 1000 nM, held at −77 mV) was “less than 10%”, the IC50 ([6]; WCPC, partially inactivated, hNav1.5, n=2, read-out: Mean IC50) was over 1 µM and the IC50 [6, 26] was over 1 µM. For the same compound, the 1.x/1.7 ([6]; partially inactivated, hNav1.5 / hNav1.7) was over 1613, the “block of hNav1.7 current” value ([7]; 100 nM) was “approximately 95%” and the “potency against hNav1.7, in words” value ([7]; manual WCPC) was “sub-nanomolar potency”. For the same compound, the “selectivity for hNav1.7 against other human VGSCs” value ([7]; manual WCPC, hNav1.1-hNav1.8) was over 30 fold, the IC50 ([7]; read-out: IC50 of hNav1.7 inhibition) was 0.00062 µM and the “selectivity for Nav1.7 over Nav1.6” value ([8]; PatchXpress) was 334 fold. For the same compound, the Nav1.6/Nav1.7 ([8]; Table 15, ratio of PX tonic IC50 values) was 334, the IC50 ([8]; Table 15, read-out: PX hNav1.6 Tonic IC50) was 0.183 µM and the “block of hNav1.6 current, in words” value ([9]; 1000 nM, held at −67 mV) was “blocks the majority of Nav current”. It also gave an IC50 ([9]; manual patch clamp, ~20% inactivation, read-out: IC50 hNav1.6) of 0.0194 µM, a 1.x/1.7 ([9]; partially inactivated, hNav1.6 / hNav1.7) of 31 and a Nav1.4/Nav1.7 [10] of 253. For the same compound, the “block of hNav1.4 current” value ([11]; 1000 nM, held at −78 mV) was “approximately 90%”, the IC50 ([11]; manual WCPC, partially inactivated state, read-out: IC50 of hNav1.4 inhibition) was 0.0746 µM and the 1.x/1.7 ([11]; partially inactivated, hNav1.4 / hNav1.7) was 120. The “mean Cmax over the mouse DRG Nav1.7 IC50” value [12] was 196 fold, the IC50 [13] was 0.000548 µM and the “block of hNav1.3 current” value ([14]; 1000 nM, held at −68 mV) was “approximately 90%”. It also gave an IC50 ([14]; manual WCPC, ~20% inactivation, read-out: IC50 of hNav1.3 inhibition) of 0.0525 µM, a 1.x/1.7 ([14]; partially inactivated, hNav1.3 / hNav1.7) of 85 and a Nav1.5/Nav1.7 [15] of 5854. The “block of hNav1.2 current, in words” value ([16]; 1000 nM, held at −65 mV) was “blocks the majority of Nav current”, the IC50 ([16]; manual patch clamp, ~20% inactivation, read-out: IC50 hNav1.2) was 0.0444 µM and the 1.x/1.7 ([16]; partially inactivated, hNav1.2 / hNav1.7) was 72. For the same compound, the IC50 [17] was 0.0112 µM, the “block of TTX-sensitive Nav current” value ([17]; 300 nM, C57 Black 6 mouse DRG neuron) was “approximately 90%” and the 1.x/1.7 ([17]; partially inactivated) was 18.

For `CC[C@H](C)[C@H](NC(=O)[C@@H](NC(=O)[C@H](CCCCN)NC(=O)[C@H](CCCNC(=N)N)NC(=O)[C@@H]1CSSC[C@@H]2NC(=O)[C@H](C)NC(=O)[C@H](CCCNC(=N)N)NC(=O)[C@H](CCCCN)NC(=O)[C@H](CO)NC(=O)[C@H](CC(=O)O)NC(=O)[C@@H]3CSSC[C@H](NC(=O)[C@H](CCCNC(=N)N)NC(=O)[C@H](CC(C)C)NC(=O)CNC(=O)[C@H](CCC(=O)O)NC(=O)[C@H](CSSC[C@H](NC(=O)[C@@H](N)Cc4ccc(O)cc4)C(=O)N[C@@H](CCC(N)=O)C(=O)N[C@@H](CCCCN)C(=O)N[C@@H](Cc4c[nH]c5ccccc45)C(=O)N[C@@H](CCSC)C(=O)N[C@@H](Cc4c[nH]c5ccccc45)C(=O)N[C@@H]([C@@H](C)O)C(=O)N3)NC2=O)C(=O)N[C@@H](CCCCN)C(=O)N[C@@H](CC(C)C)C(=O)N[C@@H](Cc2c[nH]c3ccccc23)C(=O)N1)[C@@H](C)CC)C(N)=O` [compound 2], the IC50 [18] was 3 µM and 3.5 µM, the 1.x/1.7 ([1]; fully non-inactivated) was 5724 and the 1.x/1.7 ([1]; partially inactivated) was 3282. The “block of TTX-resistant hNav1.8 current” value [2] was “approximately 50%”, the “inhibition of hNav1.8 current, in words” value [2] was “only partial inhibition” and the “block of hNav1.5 current, in words” value ([6]; 3 μM, held at −85 mV) was “blocked most Nav1.5 current; also recorded: nearly complete inhibition”. The IC50 [6, 26] was 0.426 µM, the “inhibition of hNav1.7 current, in words” value ([7]; 1 nM as printed) was “complete inhibition” and the “block of hNav1.7 current, in words” value ([7]; 1 μM) was “blocked all Nav1.7 current”. For the same compound, the “block of hNav1.4 current, in words” value ([11]; 100 nM, held at −83 mV) was “completely blocked Nav1.4 current; also recorded: complete inhibition”, the “block of hNav1.3 current, in words” value ([14]; 300 nM, held at −80 mV) was “completely blocked Nav1.3 current; also recorded: complete inhibition” and the IC50 [19] was over 1 µM. For the same compound, the “IC50 of TTX-resistant sodium channel current inhibition” value [19] was “not measurable”, the 1.x/1.7 ([17]; fully non-inactivated) was 530 and the “block of TTX-sensitive Nav current, in words” value ([17]; increasing concentrations, time course) was “blocked nearly all TTX-sensitive Nav current”. For the same compound, the 1.x/1.7 ([17]; partially inactivated) was 111.

For `CC[C@H](C)[C@H](NC(=O)[C@H](CCCCN)NC(=O)[C@H](CCCNC(=N)N)NC(=O)[C@@H]1CSSC[C@@H]2NC(=O)[C@H](C)NC(=O)[C@H](CCCNC(=N)N)NC(=O)[C@H](CCCCN)NC(=O)[C@H](CO)NC(=O)[C@H](CC(=O)O)NC(=O)[C@@H]3CSSC[C@H](NC(=O)[C@H](CCC(=O)O)NC(=O)[C@H](CC(C)C)NC(=O)CNC(=O)[C@H](CCC(=O)O)NC(=O)[C@H](CSSC[C@H](NC(=O)[C@@H](N)Cc4ccc(O)cc4)C(=O)N[C@@H](CCC(N)=O)C(=O)N[C@@H](CCCCN)C(=O)N[C@@H](Cc4c[nH]c5ccccc45)C(=O)N[C@@H](CCSC)C(=O)N[C@@H](Cc4c[nH]c5ccccc45)C(=O)N[C@@H]([C@@H](C)O)C(=O)N3)NC2=O)C(=O)N[C@@H](CCCCN)C(=O)N[C@@H](CC(C)C)C(=O)N[C@@H](Cc2c[nH]c3ccccc23)C(=O)N1)C(=O)N[C@@H](Cc1c[nH]c2ccccc12)C(N)=O` [SEQ ID NO: 112, [Glu20,Trp29]JzTx-V(1-29)], the “% Peptide Remaining” value [20] was 100%.

With `CC[C@H](C)[C@H](NC(=O)[C@H](CO)NC(=O)[C@H](CCCCN)NC(=O)[C@H](CCCNC(=N)N)NC(=O)[C@@H]1CSSC[C@@H]2NC(=O)[C@H](C)NC(=O)[C@H](CCCNC(=N)N)NC(=O)[C@H](CCCCN)NC(=O)[C@H](CO)NC(=O)[C@H](CC(=O)O)NC(=O)[C@@H]3CSSC[C@H](NC(=O)[C@H](CCC(=O)O)NC(=O)[C@H](CC(C)C)NC(=O)CNC(=O)[C@H](CCC(=O)O)NC(=O)[C@H](CSSC[C@H](NC(=O)[C@@H](N)Cc4ccc(O)cc4)C(=O)N[C@@H](CCC(N)=O)C(=O)N[C@@H](CCCCN)C(=O)N[C@@H](Cc4c[nH]c5ccccc45)C(=O)N[C@@H](CCSC)C(=O)N[C@@H](Cc4c[nH]c5ccccc45)C(=O)N[C@@H]([C@@H](C)O)C(=O)N3)NC2=O)C(=O)N[C@@H](CCCCN)C(=O)N[C@@H](CC(C)C)C(=O)N[C@@H](Cc2c[nH]c3ccccc23)C(=O)N1)C(N)=O` [compound 138] the “% Peptide Remaining” value [21] was 100%, the “% Peptide Remaining” value [22] was 100% and the “% Peptide Remaining” value [23] was 100%. The Nav1.4/Nav1.7 [24] was 62 and 34.

In the case of `Cc1cccc(C)c1OCC(C)N` (stereo not shown) [mexilitine, reference compound], the “reversal of thermal hyperalgesia, positive control” value [25] is reported as “sufficient to significantly reverse thermal hyperalgesia”.

— patent US10344060B2 (priority 2013, dated 2019)
